Assay results from patent US8987277B2, “Fungicide” (priority 2010, dated 2015).
In brackets after ≈: the same amount, converted by molar mass.

Tests used:
Aspergillus = test: Minimum inhibiting concentration towards multicellular fungi; type: cell-based
Excerpt: (§1) Discovering the Minimum Inhibiting Concentration of the Inventive Agent Towards Multicellular Fungi

Mucor = test: as above; type: cell-based
Excerpt: as §1

Botrytis spp = test: Biocidal effect on spores of fungi that cause plant diseases and damage agricultural products; type: cell-based; conditions: fungi spores (a mixture)
Experimental: (§2) Various fungi were used in the experiment—vegetative forms and spores of Alternaria alternata, Fusarium moniliforme, Botrytis spp. that cause diseases of plants and damage agricultural products. Biocidal properties were tested on spores of fungi cultures with optical density of the inoculated dose p E=0.310.

C. parapsilosis = test: Minimum inhibiting concentration towards unicellular fungi, serial dilution; type: cell-based; conditions: Sabouraud's agar
Experimental: (§3) Discovering the Minimum Inhibiting Concentration of the Inventive Substance (Forms A and B) Towards Unicellular Fungi
(§4) Fungi were grown in Sabouraud's agar. The effect of the substance was assessed by means of the serial dilution method.

C. albicans = test: as above; type: cell-based; conditions: Sabouraud's agar
Experimental: as §3, §4

C. krusei = test: as above; type: cell-based; conditions: Sabouraud's agar
Experimental: as §3, §4

C. glabrata = test: as above; type: cell-based; conditions: Sabouraud's agar
Experimental: as §3, §4

S. cerevisiae = test: as above; type: cell-based; conditions: Sabouraud's agar
Experimental: as §3, §4

Aspergillis niger = test: Biocidal effect on spores of fungi that damage paper, wood and dyes; type: cell-based; conditions: fungi spores (a mixture)
Experimental: (§5) Various fungi were used in the experiment—vegetative forms and spores of Aspergillis niger, Penicillium ochro-chloron that damage paper, wood and dyes thereof.
(§6) Biocidal properties were tested on spores of fungi cultures with optical density of the inoculated dose p E=0.310.

[1] = system: Penicillium ochro-chloron; test: as above; type: cell-based; conditions: fungi spores (a mixture)
Experimental: as §5, §6

A. alternata = test: Biocidal effect on spores of fungi that cause plant diseases and damage agricultural products; type: cell-based, Alternaria alternata; conditions: fungi spores (a mixture)
Experimental: as §2

[2] = system: Candida albicans strain 15; test: Assessment of the fungicide effect, serial dilutions in microplates with neutralizer; type: cell-based; conditions: for Concentration that destroys the fungi (fungicide effect): Candida genus, exposure time 24 h
Experimental: (§7) Strains of fungi of Candida genus (Candida albicans strain 15) that are resistant towards disinfecting agents and trichophyton (Trichophiton gypseum), which were cultivated in Sabouraud's agar, were used as test microorganisms.
(§8) Forms A and B were dissolved in sterile distilled water.
(§9) The method of serial dilutions in microplates was used in the experiment. The dissolved substance was titrated in the culture medium, then the test microorganisms were introduced and after certain intervals of disinfection time the neutralizer was added, namely 0.1% solution of citric acid. After the exposure during 1-2 minutes the contents of each well were plated to solid culture media.
(§10) The following concentrations of the substance were studied: 0.1-0.05-0.025-0.0125% of the drug for action duration of 1, 3, 5, 10, 20, minutes and 1.0-1.5-3.0 and 24 h.
(§11) All inoculations were incubated at an optimum temperature during 24 hours.
(§12) The fungicide effect was assessed according to the presence or absence of growing microorganisms in the culture media.

Trichophiton gypseum = test: as above; type: cell-based; conditions: for Concentration that destroys the fungi (fungicide effect): trichophyton genus, exposure time 24 h
Experimental: as §7, §8, §9, §10, §11, §12

F. moniliforme = test: Biocidal effect on spores of fungi that cause plant diseases and damage agricultural products; type: cell-based, Fusarium moniliforme; conditions: fungi spores (a mixture)
Experimental: as §2

[3] = read-out: Minimum inhibiting (biocidal) concentration (MIC) of the substance

| Compound | Minimum inhibiting (biocidal) concentration of the substance (Botrytis spp) [µg/mL] | Minimum inhibiting (biocidal) concentration of the substance (A. alternata) [µg/mL] | Minimum inhibiting (biocidal) concentration of the substance (F. moniliforme) [µg/mL] | Minimum inhibiting concentration (MIC) (Aspergillus) [µg/mL] | Minimum inhibiting concentration (MIC) (Mucor) [µg/mL] | Minimum inhibiting concentration (C. parapsilosis) [µg/mL] | Minimum inhibiting concentration (C. albicans) [µg/mL] | Minimum inhibiting concentration (C. krusei) [µg/mL] | Minimum inhibiting concentration (C. glabrata) [µg/mL] | Minimum inhibiting concentration (S. cerevisiae) [µg/mL] | Minimum inhibiting (biocidal) concentration (MIC) of the substance (Aspergillis niger) [µg/mL] | Minimum inhibiting (biocidal) concentration (MIC) of the substance [1] [µg/mL] | Concentration that destroys the fungi (fungicide effect) [2] [%] | Concentration that destroys the fungi (fungicide effect) (Trichophiton gypseum) [%] | other results |
| --- | --- | --- | --- | --- | --- | --- | --- | --- | --- | --- | --- | --- | --- | --- | --- |
| OC(Cn1cncn1)(Cn1cncn1)c1ccc(F)cc1F [Fluconazole, 2-(2,4-difluorophenyl)-1,3-bis(1N-1,2,4-triazol-1-yl)-2-propanol, reference compound] | 64 | 32 | 64 | – | – | – | – | – | – | – | – | – | – | – | MIC (Aspergillus): 64 µg/mL (≈ 209 µM); MIC (Mucor): 64 µg/mL (≈ 209 µM); MIC (C. parapsilosis; Lodderomyces parapsilosis): 0.25 µg/mL (≈ 0.816 µM); MIC (C. albicans; Candida albicans): 2 µg/mL (≈ 6.53 µM); MIC (C. krusei; Pichia kudriavzevii): 32 µg/mL (≈ 104 µM); MIC (C. glabrata; Nakaseomyces glabratus): 64 µg/mL (≈ 209 µM); MIC (S. cerevisiae; Saccharomyces cerevisiae): 0.125 µg/mL (≈ 0.408 µM); MIC (Aspergillis niger; [3]): 64 µg/mL (≈ 209 µM); MIC [1, 3]: 64 µg/mL (≈ 209 µM); Fungicide effect (presence or absence of growth) ([2]; Candida, same conditions as the inventive substance): did not destroy the microbes; Fungicide effect (presence or absence of growth) (Trichophiton gypseum; trichophyton, same conditions as the inventive substance): did not destroy the microbes |
| Dimer of sodium salt of 2,4-dioxo-5-(2-hydroxy-3,5-dichlorobenzylidiene)amino-1,3-pyrimidine | 4.0 | 2.0 | 4.0 | 2 | 1 | 0.125 | 1 | 1 | 0.250 | 0.125 | 1.0 | 4.0 | 0.025 | 0.1 | – |
| 2,4-dioxo-5-(2-hydroxy-3,5-dichlorobenzylidiene)amino-1,3-pyrimidine salt | 8.0 | 4.0 | 8.0 | 2 | 1 | 0.250 | 1 | 1 | 0.125 | 0.125 | 2.0 | 8.0 | 0.025 | 0.1 | – |
